Laboratory results published in paper PMC10968448, “An In Silico and In Vitro Assessment of the Neurotoxicity of Mefloquine” (Biomedicines, 2024).
Where a name gives a salt, the structure may show the parent alone.

Assays:
SH-SY5Y cells [1] = assay: LDH cytotoxicity assay (extracellular LDH); assay type: cell-based, human; details: for IC50: Homo sapiens
SH-SY5Y cells [2] = assay: Mitochondrial membrane potential (MMP) assay, MitoTracker Green FM; assay type: cell-based, human; details: 48 h exposure
KYSE150 cells = system: KYSE150 cells; design: method as in PMID 32850358; details: 10 µM MQ, KYSE150 oesophageal squamous cell carcinoma cell line; cited from earlier work
[3] = system: AChE of electric eel origin; design: method as in PMID 3878759; details: proposed non-competitive inhibitor; cited from earlier work
[4] = target: 5-hydroxytryptamine-3 (5-HT3) (serotonin) receptors; design: method as in PMID 17502851; details: non-competitive inhibitor; cited from earlier work
[5] = human, in vivo, cited from earlier work
SH-SY5Y cells [6] = assay: Flow cytometric assessment of cell death, Annexin V-FITC/PI; assay type: cell-based, human
SH-SY5Y cells [7] = assay: Cellular ATP bioluminescence assay (cellular bioenergetics); assay type: cell-based, human; details: for IC50: Homo sapiens
human (recombinant) AChE = system: human (recombinant) AChE; design: method as in PMID 16288931; details: 10 µM MQ; cited from earlier work
SH-SY5Y cells [8] = assay: MTT assay of cell metabolic activity/viability; assay type: cell-based, human; details: for increase of cell metabolic activity (MTT): 6 h, p < 0.0001; for IC50: Homo sapiens, SH-SY5Y cells, non-linear regression
SH-SY5Y cells [9] = system: SH-SY5Y cells; design: method as in PMID 22465322; details: 10 µM MQ, 24 h; cited from earlier work
[10] = target: human AChE enzyme (recombinant) (Homo sapiens, UniProt P22303); assay: biochemical; assay type: biochemical
human BuChE enzyme = human BuChE enzyme (Homo sapiens, UniProt P06276); assay: biochemical; assay type: biochemical
[11] = design: method as in PMID 32639233; details: overdose; cited from earlier work
[12] = design: method as in PMID 21118921; details: healthy male and female volunteers; cited from earlier work
SH-SY5Y cells [13] = assay: ROS generation, DCFDA assay; assay type: cell-based, human; details: 10 mM NAC with MQ 0.1–10 µM, 3 h
[14] = SH-SY5Y cells, 6 h exposure, non-linear regression
[15] = SH-SY5Y cells, 24 h exposure, non-linear regression
[16] = SH-SY5Y cells, 48 h exposure, non-linear regression

Sequence of human BuChE enzyme (P06276 29-602): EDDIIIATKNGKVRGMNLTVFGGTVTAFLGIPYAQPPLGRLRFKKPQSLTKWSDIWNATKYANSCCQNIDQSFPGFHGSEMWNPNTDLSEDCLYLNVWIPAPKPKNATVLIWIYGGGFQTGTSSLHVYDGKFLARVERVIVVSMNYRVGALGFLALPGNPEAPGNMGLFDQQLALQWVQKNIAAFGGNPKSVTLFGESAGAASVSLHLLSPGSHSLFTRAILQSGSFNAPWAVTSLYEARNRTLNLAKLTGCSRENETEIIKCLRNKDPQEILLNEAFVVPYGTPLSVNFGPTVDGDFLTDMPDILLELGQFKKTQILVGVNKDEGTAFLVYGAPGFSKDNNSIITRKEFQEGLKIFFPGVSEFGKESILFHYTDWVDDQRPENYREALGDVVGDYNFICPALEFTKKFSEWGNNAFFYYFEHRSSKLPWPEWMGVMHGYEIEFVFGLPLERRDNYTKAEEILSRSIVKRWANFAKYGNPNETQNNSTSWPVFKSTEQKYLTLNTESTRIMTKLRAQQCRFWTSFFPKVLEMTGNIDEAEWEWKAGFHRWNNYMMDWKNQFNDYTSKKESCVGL
Sequence of human AChE enzyme (recombinant) (P22303 32-614): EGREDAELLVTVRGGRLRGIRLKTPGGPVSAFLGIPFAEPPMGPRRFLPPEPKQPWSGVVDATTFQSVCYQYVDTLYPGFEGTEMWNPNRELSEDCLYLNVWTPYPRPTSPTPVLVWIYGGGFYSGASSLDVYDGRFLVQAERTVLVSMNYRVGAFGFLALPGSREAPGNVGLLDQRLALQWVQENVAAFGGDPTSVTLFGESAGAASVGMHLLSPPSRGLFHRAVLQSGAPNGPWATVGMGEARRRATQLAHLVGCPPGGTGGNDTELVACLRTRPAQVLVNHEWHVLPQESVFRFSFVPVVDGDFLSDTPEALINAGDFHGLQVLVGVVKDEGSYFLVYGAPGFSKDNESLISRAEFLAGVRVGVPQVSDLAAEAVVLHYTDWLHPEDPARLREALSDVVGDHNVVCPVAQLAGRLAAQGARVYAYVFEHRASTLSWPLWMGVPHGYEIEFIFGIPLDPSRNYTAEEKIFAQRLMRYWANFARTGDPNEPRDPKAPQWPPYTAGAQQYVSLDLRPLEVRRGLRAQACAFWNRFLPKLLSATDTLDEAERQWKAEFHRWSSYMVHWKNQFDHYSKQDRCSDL

## O[C@H](c1cc(C(F)(F)F)nc2c(C(F)(F)F)cccc12)[C@@H]1CCCCN1 (racemic) [MQ, (R*,S*)-(+/−)-α-2-Piperidyl-2,8-bis(trifluoromethyl)quinoline-4-methanol monohydrochloride]
SH-SY5Y cells [1]; 0.1 to 10 µM MQ, except 10 µM after 48 h
  extracellular LDH production: no significant LDH production
SH-SY5Y cells [1]; 25, 50 and 100 µM MQ
  extracellular LDH levels: dramatic increase
SH-SY5Y cells [1]; SH-SY5Y, 24 h exposure
  IC50: ~16 µM
SH-SY5Y cells [1]; [14]
  IC50: 26.2 µM
SH-SY5Y cells [1]; [15]
  IC50: 16.2 µM
SH-SY5Y cells [1]; [16]
  IC50: 11.7 µM
SH-SY5Y cells [2]
  concentration at which the MMP is significantly altered: 10 µM
KYSE150 cells
  effect on cell number: reduces the cell number
[3]
  inhibition of electric eel AChE: weak inhibitor
[4]
  IC50: ~10 µM
[5]; po
  time of peak concentration in the blood: 7 to 24 h
[5]
  terminal half-life: 14 to 15 days
SH-SY5Y cells [6]; 6 h exposure
  concentration at which increase in apoptotic cells reached significance: 50 µM
SH-SY5Y cells [6]; 24 h exposure
  concentration at which increase in apoptotic cells reached significance: 20 µM
SH-SY5Y cells [7]; 6 h exposure
  concentration from which cellular ATP is significantly reduced: ≥ 1 µM
SH-SY5Y cells [7]; 48 h exposure
  concentration from which cellular ATP is significantly reduced: ≥ 0.1 µM
SH-SY5Y cells [7]; SH-SY5Y, 24 h exposure
  IC50: ~6 µM
SH-SY5Y cells [7]; [14]
  IC50: 10.2 µM
SH-SY5Y cells [7]; [15]
  IC50: 4.73 µM
SH-SY5Y cells [7]; [16]
  IC50: 3.19 µM
Human (recombinant) AChE
  inhibition of human (recombinant) AChE: < 10%
SH-SY5Y cells [8]; 1 µM MQ
  increase of cell metabolic activity (MTT): 27%
SH-SY5Y cells [8]; 10 µM MQ
  increase of cell metabolic activity (MTT): approximately 29%
SH-SY5Y cells [8]; 10 µM MQ, 48 h, p = 0.024
  reduction of cell metabolic activity (MTT): 13.6%
SH-SY5Y cells [8]; 48 h exposure
  threshold concentration for significant reduction in viability: ~10 µM
  IC50: 14.2 µM
SH-SY5Y cells [8]; 6 h exposure
  IC50: 67.1 µM
SH-SY5Y cells [8]; 24 h exposure
  IC50: 23.9 µM
SH-SY5Y cells [8]; all time points examined (6, 24, 48 h)
  threshold concentration for toxicity to neuroblastoma cells (MTT): ≥ 25 µM
SH-SY5Y cells [9]
  reduction of cell viability (MTT): approximately 20%
[10]; 1 µM MQ
  inhibition at 1 µM: 9.8%
[10]; 10 µM MQ, significant
  inhibition at 10 µM: 20.5%
[10]; MQ 1–100 µM assayed
  concentration from which AChE activity is significantly reduced: ≥ 10 µM
Human BuChE enzyme; 100 µM MQ
  inhibition at 100 µM: 18%
Human BuChE enzyme; MQ 1–100 µM assayed
  concentration from which BuChE activity is significantly reduced: ≥ 25 µM
Human BuChE enzyme; MQ exposures of between 1 and 25 µM
  reduction in BuChE enzymatic activity: approximately 10%

## CCN(CC)CCCC(C)Nc1ccnc2cc(Cl)ccc12 (stereo not drawn) [chloroquine]
[11]
  whole blood concentration associated with 1% mortality: 13.5 µM

## O[C@H](c1cc(C(F)(F)F)nc2c(C(F)(F)F)cccc12)[C@@H]1CCCCN1 (single isomer, unassigned) [+-MQ enantiomer]
[12]
  safety and tolerability compared with the racemate: more favourable profile for mood and sleep

## CC(=O)N[C@@H](CS)C(=O)O [NAC, N-acetylcysteine]
SH-SY5Y cells [13]
  effect of antioxidant co-treatment on MQ-induced ROS production: significantly inhibited MQ-induced ROS production
